What was measured:
Format in all cases: in vivo
[1] = test system: Critical Hind-Limb Ischemia Mouse Model; assay: Immunohistochemistry and capillaries density (CD34, SMA, FITC-dextran), mouse hind-limb ischemia
Description: Mice were sacrificed at study termination on day 36. Fluorescein isothiocyanate (FITC)—dextran 500000 Da conjugate 10 mg/ml was injected i.v. in a dose of 200 μl per mouse 5 minutes before sacrifice to all animals. Quadriceps muscle was dissected into coronary part. The muscle was fixed in 2.5% fresh paraformaldehyde (pH 7.4) for 24 hours and was then embedded in the paraffin for smooth muscle actin (SMA) with mouse monoclonal antibodies (anti-SMA Ab-1, clone 1A4, 1:800, Thermo scientific) and CD34 with anti CD34 (1:200, Cedralene) immunostaining. Paraffin embedding was done according the standard embedding procedure.
Stained sections were evaluated and photographed by fluorescence microscope (E600; Nikon, Tokyo, Japan) equipped with plan fluor objectives connected to a CCD camera (DMX1200F; Nikon). […] Digital images were collected and analyzed using Image Pro+ software. Four sections of muscle samples were taken from the same areas of eight animals from groups 1M, 3M and 4M. The area of blood vessels was measured. Density was expressed as the mean number of capillaries per field of view. Total vessels represent all blood vessels in the measured area.

tMCAO rat-stroke model = assay: Neurological test score (Neuroscore, mNRS), tMCAO rat; settings: groups 2M (30 mg/kg 3 times per week) and 3M (daily); day 7 up to day 28
Description: Transient middle cerebral artery occlusion was performed according to the method previously described in Stroke 29, 2162-2170 (1998). The right common carotid artery (CCA) was exposed through a midline neck incision and carefully dissected free from surrounding nerves and fascia—from its bifurcation to the base of the skull. The occipital artery branches of the external carotid artery (ECA) were then isolated, and these branches were dissected and coagulated. The ECA was dissected further distally and coagulated along with the terminal lingual and maxillary artery branches, which was then divided. The internal carotid artery (ICA) was isolated and carefully separated from the adjacent vagus nerve, and the pterygopalatine artery was ligated close to its origin with a 5-0 nylon suture (SMI, Belgium). Next a 4-0 silk suture was tied loosely around the mobilized ECA stump, and a 4 cm length of 4-0 monofilament nylon suture (the tip of the suture was blunted by using a flame, and the suture was coated with polylysine, prior to insertion) was inserted through the proximal ECA into the ICA and thence into the circle of Willis, effectively occluding the MCA. The surgical wound was closed and the animals were returned to their cages to recover from anesthesia. […]

[2] = test system: Critical Hind-Limb Ischemia Mouse Model; assay: Blood flow by non-contact laser Doppler, mouse hind-limb ischemia; settings: for folds increase in the mean blood flow due to dextran sulfate treatment: vs vehicle control 1M; for Mean change in blood flow day 35 vs. day 1: operated limb, vehicle 19.5
Description: Blood flows in legs from both sides were measured with a non-contact laser Doppler before surgery on day −1 and on days: 1, 7, 14, 21, 28 and 35 post operation. Blood flow measurements was expressed as the ratio of the flow in the ischemic limb to that in the normal limb.

In the case of Dextran sulfate, the “Angiogenesis in ischemic (right) vs non-ischemic (left) limb” value ([1]; CD34 and FITC-dextran capillaries density, FIG. 4) is reported as “only induce angiogenesis in the ischemic tissue”, the “Number of CD34 positive capillaries compared to control group” value ([1]; groups 3M and 4M (30 mg/kg) vs 1M, day 35) is reported as “larger” and the “FITC-dextran staining of capillaries (functional capillaries)” value ([1]; groups 3M and 4M, ischemic limb) is reported as “functioning and active”. The “SMA staining, capillaries formation” value ([1]; treated groups vs control) was “same increase in capillaries formations”, the “Neuroscore (0-18) compared to vehicle treated control” value (tMCAO rat-stroke model) was “Statistically significant differences” and the “Blood perfusion compared to the vehicle treated control” value ([2]; 30 mg/kg s.c. three times a week or once a week) was “significantly restored blood perfusion”. For the same substance, the “folds increase in the mean blood flow due to dextran sulfate treatment” value (shortened to “folds increase”) ([2]; group 2M, 10 mg/kg 3 times/week) was 2.2 folds, the “Mean change in blood flow day 35 vs. day 1” value (“Mean change” below) ([2]; group 2M, 10 mg/kg s.c. 3 times/week) was 46.7 units and the “folds increase” value ([2]; group 3M, 30 mg/kg 3 times/week) was 3.0 folds. The “Mean change” value ([2]; group 3M, 30 mg/kg s.c. 3 times/week) was 59.3 units, the “folds increase” value ([2]; group 4M, 30 mg/kg 1 time/week) was 2.8 folds and the “Mean change” value ([2]; group 4M, 30 mg/kg s.c. 1 time/week) was 51.1 units.
